Tests used:
[1] = biological target: T1, human glucocorticoid receptor (GR) complex (Homo sapiens, UniProt P04150); assay: Glucocorticoid receptor competitive binding assay (fluorescence polarization, TAMRA-labeled dexamethasone probe); settings: compounds of Formula (IA)
T1 construct: made in house; host or cells: insect expression system (baculovirus lysate)
T1 sequence (P04150 1-777): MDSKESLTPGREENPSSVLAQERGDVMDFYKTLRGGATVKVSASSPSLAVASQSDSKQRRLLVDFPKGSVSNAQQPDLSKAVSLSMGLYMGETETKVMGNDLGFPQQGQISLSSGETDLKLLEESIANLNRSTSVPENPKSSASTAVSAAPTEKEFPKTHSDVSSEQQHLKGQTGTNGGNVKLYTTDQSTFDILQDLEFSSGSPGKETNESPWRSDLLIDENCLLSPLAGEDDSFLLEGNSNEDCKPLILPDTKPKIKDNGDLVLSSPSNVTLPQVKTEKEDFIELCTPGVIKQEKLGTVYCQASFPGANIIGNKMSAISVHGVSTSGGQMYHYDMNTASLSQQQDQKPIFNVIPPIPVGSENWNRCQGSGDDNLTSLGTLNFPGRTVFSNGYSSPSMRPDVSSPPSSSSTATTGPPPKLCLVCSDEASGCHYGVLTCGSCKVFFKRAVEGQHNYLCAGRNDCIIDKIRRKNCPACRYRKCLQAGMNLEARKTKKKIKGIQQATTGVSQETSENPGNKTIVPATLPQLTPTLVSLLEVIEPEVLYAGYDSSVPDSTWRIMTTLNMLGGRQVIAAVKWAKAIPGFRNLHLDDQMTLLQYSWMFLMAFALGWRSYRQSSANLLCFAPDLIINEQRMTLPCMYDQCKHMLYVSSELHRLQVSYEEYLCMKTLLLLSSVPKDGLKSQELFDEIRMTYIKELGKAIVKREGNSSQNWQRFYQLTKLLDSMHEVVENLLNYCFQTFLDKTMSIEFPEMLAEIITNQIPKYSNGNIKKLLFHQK
Protocol: Compounds of the invention were evaluated for binding to the steroid receptor by a fluorescence polarization competitive binding assay. Detailed descriptions for preparation of recombinant glucocorticoid receptor (GR) complex used in the assay is described in U.S. patent application Pub.
A. Glucocorticoid Receptor Competitive Binding Assay
Step 1. Characterization of the Fluorescent Probe
The wavelengths for maximum excitation and emission of the fluorescent probe should first be measured. An example of such a probe is rhodamine (TAMRA)-labeled dexamethasone.
The affinity of the probe for the steroid receptor was then determined in a titration experiment. The fluorescence polarization value of the probe in assay buffer was measured on an SLM-8100 fluorometer using the excitation and emission maximum values described above. Aliquots of expression vector lysate were added and fluorescence polarization was measured after each addition until no further change in polarization value was observed. Non-linear least squares regression analysis was used to calculate the dissociation constant of the probe from the polarization values obtained for lysate binding to the probe.
Step 2. Screening for Inhibitors of Probe Binding
This assay uses fluorescence polarization (FP) to quantitate the ability of test compounds to compete with tetramethyl rhodamine (TAMRA)-labeled dexamethasone for binding to a human glucocorticoid receptor (GR) complex prepared from an insect expression system. The assay buffer was: 10 mM TES, 50 mM KCl, 20 mM Na2MoO4.2H2O, 1.5 mM EDTA, 0.04% w/v CHAPS, 10% v/v glycerol, 1 mM dithiothreitol, pH 7.4. Test compounds were dissolved to 1 mM in neat DMSO and then further diluted to 10× assay concentration in assay buffer supplemented with 10% v/v DMSO. Test compounds were serially diluted at 10× assay concentrations in 10% DMSO-containing buffer in 96-well polypropylene plates. Binding reaction mixtures were prepared in 96-well black Dynex microtiter plates by sequential addition of the following assay components to each well: 15 μL of 10× test compound solution, 85 μL of GR-containing baculovirus lysate diluted 1:170 in assay buffer, and 50 μL of 15 nM TAMRA-labeled dexamethasone. Positive controls were reaction mixtures containing no test compound; negative controls (blanks) were reaction mixtures containing 0.7 μM to 2 μM dexamethasone. […] IC50 values were determined by iterative non-linear curve fitting of the FP signal data to a 4-parameter logistic equation.

[2] = tested on: glucocorticoid receptor function; assay: one or more of the above assays (GR binding and glucocorticoid receptor cell assays: aromatase, IL-6, TAT, MMTV-Luc, IL-8, ICAM-Luc); type: cell-based; settings: assay not specified per compound

| Structure (SMILES) | activity in the GR binding assay [1] | activity as agonists of the glucocorticoid receptor function in one or more of the above assays [2] |
| --- | --- | --- |
| COc1ccc(F)cc1C(C)(C)CC(O)(Cc1cc2cnncc2s1)C(F)(F)F (stereo not shown) [1,1,1-Trifluoro-4-(5-fluoro-2-methoxyphenyl)-4-methyl-2-thieno[2,3-d]pyridazin-2-ylmethylpentan-2-ol] | potent activity | potent agonists |
| CC(C)(CC(O)(Cc1cc(Cl)nc(Cl)c1C#N)C(F)(F)F)c1cc(F)ccc1O (stereo not shown) [2,6-Dichloro-4-[4-(5-fluoro-2-hydroxyphenyl)-2-hydroxy-4-methyl-2-trifluoromethylpentyl]nicotinonitrile] | potent activity | potent agonists |
| COc1ccc(F)cc1C(C)(C)CC(O)(Cc1cc2ccnc(F)c2[nH]1)C(F)(F)F (stereo not shown) [1,1,1-Trifluoro-4-(5-fluoro-2-methoxyphenyl)-2-(7-fluoro-1H-pyrrolo[2,3-c]pyridin-2-ylmethyl)-4-methylpentan-2-ol] | potent activity | potent agonists |
| Cc1cc(CC(O)(CC(C)(C)c2cccc(F)c2)C(F)(F)F)cc(C)n1 (stereo not shown) [2-(2,6-Dimethylpyridin-4-ylmethyl)-1,1,1-trifluoro-4-(3-fluorophenyl)-4-methylpentan-2-ol] | potent activity | potent agonists |
| Cc1ccc(C(C)(C)CC(O)(Cc2ccnc3ccccc23)C(F)(F)F)cc1C (stereo not shown) [4-(3,4-Dimethylphenyl)-1,1,1-trifluoro-4-methyl-2-quinolin-4-ylmethylpentan-2-ol] | potent activity | potent agonists |
| COc1ccc(F)cc1C(C)(C)CC(O)(Cc1cc2c(OC)ncnc2[nH]1)C(F)(F)F (stereo not shown) [1,1,1-Trifluoro-4-(5-fluoro-2-methoxyphenyl)-2-(4-methoxy-7H-pyrrolo[2,3-d]pyrimidin-6-ylmethyl)-4-methylpentan-2-ol] | potent activity | potent agonists |
| CC(C)(CC(O)(Cc1ccnc2ccccc12)C(F)(F)F)c1ccc(C(F)(F)F)cc1 (stereo not shown) [1,1,1-Trifluoro-4-methyl-2-quinolin-4-ylmethyl-4-(4-trifluoromethylphenyl)pentan-2-ol] | potent activity | potent agonists |
| CSc1cc2c(c(C(C)(C)CC(O)(Cc3[nH]c4ccccc4c3C#N)C(F)(F)F)c1)OCC2 (stereo not shown) [2-[2-Hydroxy-4-methyl-4-(5-methylsulfanyl-2,3-dihydrobenzofuran-7-yl)-2-trifluoromethylpentyl]-1H-indole-3-carbonitrile] | potent activity | potent agonists |
| COc1cc2cc(CC(O)(CC(C)(C)c3cc(F)ccc3OC)C(F)(F)F)[nH]c2cn1 (stereo not shown) [1,1,1-Trifluoro-4-(5-fluoro-2-methoxyphenyl)-2-(5-methoxy-1H-pyrrolo[2,3-c]pyridin-2-ylmethyl)-4-methylpentan-2-ol] | potent activity | potent agonists |
| Cc1cc(F)ccc1C(C)(C)CC(O)(Cc1ccnc2ccccc12)C(F)(F)F (stereo not shown) [1,1,1-Trifluoro-4-(4-fluoro-2-methylphenyl)-4-methyl-2-quinolin-4-ylmethylpentan-2-ol] | potent activity | potent agonists |
| CC(C)(CC(O)(Cc1cc2ccccc2[nH]1)C(F)(F)F)c1cccc(Cl)c1 (stereo not shown) [4-(3-Chlorophenyl)-1,1,1-trifluoro-2-(1H-indol-2-ylmethyl)-4-methylpentan-2-ol] | potent activity | potent agonists |
| CC(C)(CC(O)(Cc1cc2ccccc2[nH]1)C(F)(F)F)c1ccc(F)cc1 (stereo not shown) [1,1,1-Trifluoro-4-(4-fluorophenyl)-2-(1H-indol-2-ylmethyl)-4-methylpentan-2-ol] | potent activity | potent agonists |
| CC(C)(CC(O)(Cc1ccnc2ccccc12)C(F)(F)F)c1cccc(-c2ccccc2)c1 (stereo not shown) [4-Biphenyl-3-yl-1,1,1-trifluoro-4-methyl-2-quinolin-4-ylmethylpentan-2-ol] | potent activity | potent agonists |

The next lines start with results.

| activity in the GR binding assay [1] | Structure (SMILES) | activity as agonists of the glucocorticoid receptor function in one or more of the above assays [2] |
| --- | --- | --- |
| potent activity | COc1ccc(F)cc1C(C)(C)CC(O)(Cc1cc2c(Cl)nc(N)nc2[nH]1)C(F)(F)F (stereo not shown) [2-(2-Amino-4-chloro-7H-pyrrolo[2,3-d]pyrimidin-6-ylmethyl)-1,1,1-trifluoro-4-(5-fluoro-2-methoxyphenyl)-4-methylpentan-2-ol] | potent agonists |
| potent activity | COc1ccc(F)cc1C(C)(C)CC(O)(Cc1cc2cc(C(=O)N3CCOCC3)ccc2[nH]1)C(F)(F)F (stereo not shown) [{2-[4-(5-Fluoro-2-methoxyphenyl)-2-hydroxy-4-methyl-2-trifluoromethylpentyl]-1H-indol-5-yl}morpholin-4-ylmethanone] | potent agonists |
| potent activity | Cc1cc(CC(O)(CC(C)(C)c2cc(F)ccc2C)C(F)(F)F)cc(C)n1 (stereo not shown) [2-(2,6-Dimethylpyridin-4-ylmethyl)-1,1,1-trifluoro-4-(5-fluoro-2-methylphenyl)-4-methylpentan-2-ol] | potent agonists |
| potent activity | CC(C)(CC(O)(Cc1cc2cnccc2[nH]1)C(F)(F)F)c1cc(F)cc2c1OCC2 (stereo not shown) [1,1,1-Trifluoro-4-(5-fluoro-2,3-dihydrobenzofuran-7-yl)-4-methyl-2-(1H pyrrolo[3,2-c]pyridin-2-ylmethyl)pentan-2-ol] | potent agonists |
| potent activity | Cc1cc(C)c(C(C)(C)CC(O)(Cc2[nH]c3ccccc3c2C#N)C(F)(F)F)cc1O (stereo not shown) [2-[2-Hydroxy-4-(5-hydroxy-2,4-dimethylphenyl)-4-methyl-2-trifluoromethylpentyl]-1H-indole-3-carbonitrile] | potent agonists |
| potent activity | COC(=O)CCCNC(=O)c1ccc2[nH]c(CC(O)(CC(C)(C)c3cc(F)ccc3OC)C(F)(F)F)cc2c1 (stereo not shown) [4-({2-[4-(5-Fluoro-2-methoxyphenyl)-2-hydroxy-4-methyl-2-trifluoromethylpentyl]-1H-indole-5-carbonyl}amino)butyric acid methyl ester] | potent agonists |
| potent activity | COc1ccc(F)cc1C(C)(C)CC(O)(Cc1cc2cc(C(=O)NCC(N)=O)ccc2[nH]1)C(F)(F)F (stereo not shown) [2-[4-(5-Fluoro-2-methoxyphenyl)-2-hydroxy-4-methyl-2-trifluoromethylpentyl]-1H-indole-5-carboxylic acid carbamoylmethylamide] | potent agonists |

— patent US8741897B2, “Glucocorticoid mimetics, methods of making them, pharmaceutical compositions and uses thereof” (Boehringer Ingelheim Pharmaceuticals Inc., priority 2003, dated 2014)
